Literature values as cited in patent US20130210767A1, “BIOCIDAL COMPOSITION AND METHOD” (Arcis Biotechnology Limited, priority 2010, published 2013).

For `CCCCCCCCCCCCCCCCCC[N+](C)(C)CCC[Si](OC)(OC)OC` [compound of formula (I)], the “stability in aqueous solution” value (aqueous solution) is given as “limited stability” and the “stability in the presence of methanol” value (in the presence of methanol) is given as “stable”.
